IC50 data for 17 molecules are collected here from patent US12662491B2 (Redona Therapeutics, Inc., priority 2020, dated 2026).

In general, IC50 refers to the concentration needed to halve the response being measured.

This experiment concerns the target T1, Zcchc11 enzyme (Homo sapiens, UniProt Q5TAX3).
T1 construct: made in house; host or cells: HEK293 cells (Zcchc11); E. coli Rosetta II (LIN28A)
T1 sequence (Q5TAX3 212-1420): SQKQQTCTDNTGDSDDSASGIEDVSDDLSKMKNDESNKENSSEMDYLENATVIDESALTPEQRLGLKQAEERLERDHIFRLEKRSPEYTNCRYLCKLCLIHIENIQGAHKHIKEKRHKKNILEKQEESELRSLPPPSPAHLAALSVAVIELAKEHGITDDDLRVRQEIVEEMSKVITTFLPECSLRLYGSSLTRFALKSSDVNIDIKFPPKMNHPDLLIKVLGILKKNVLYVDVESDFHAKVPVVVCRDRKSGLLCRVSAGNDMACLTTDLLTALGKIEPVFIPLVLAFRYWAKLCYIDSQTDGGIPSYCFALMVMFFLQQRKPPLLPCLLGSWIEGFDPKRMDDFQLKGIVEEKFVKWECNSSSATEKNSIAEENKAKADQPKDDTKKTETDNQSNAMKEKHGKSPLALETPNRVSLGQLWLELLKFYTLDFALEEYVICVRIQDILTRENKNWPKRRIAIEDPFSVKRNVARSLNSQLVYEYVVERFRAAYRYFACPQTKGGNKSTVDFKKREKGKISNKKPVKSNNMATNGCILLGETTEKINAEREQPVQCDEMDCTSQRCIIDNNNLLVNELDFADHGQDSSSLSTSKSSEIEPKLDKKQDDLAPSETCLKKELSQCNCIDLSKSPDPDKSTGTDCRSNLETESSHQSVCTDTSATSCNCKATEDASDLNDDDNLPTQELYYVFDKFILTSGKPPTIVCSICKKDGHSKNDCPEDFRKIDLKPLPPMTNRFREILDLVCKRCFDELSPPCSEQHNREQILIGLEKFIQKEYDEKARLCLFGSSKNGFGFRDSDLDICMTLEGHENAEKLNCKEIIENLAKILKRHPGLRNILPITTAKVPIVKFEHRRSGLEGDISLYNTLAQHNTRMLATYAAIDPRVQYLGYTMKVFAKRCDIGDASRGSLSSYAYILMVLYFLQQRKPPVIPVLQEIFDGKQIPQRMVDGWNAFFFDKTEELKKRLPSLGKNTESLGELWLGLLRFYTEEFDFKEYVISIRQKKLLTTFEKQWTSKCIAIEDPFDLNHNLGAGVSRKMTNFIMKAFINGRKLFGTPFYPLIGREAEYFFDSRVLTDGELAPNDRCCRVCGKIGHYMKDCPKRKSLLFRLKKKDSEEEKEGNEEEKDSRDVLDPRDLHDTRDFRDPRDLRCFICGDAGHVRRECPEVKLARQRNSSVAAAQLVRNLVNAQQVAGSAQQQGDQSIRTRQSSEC
In words: TUTase assay (Zcchc11 assay, Lin28a-dependent polyuridylation of pre-let-7). In kind it is biochemical. Conditions: Lin28a-dependent Zcchc11 (Z11) TUTase activity; read-out: Potency Lin28a-dep Z11 IC50. In a few lines:
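LIN28A (10 nM) in pH 7.3 HEPES/KCl/MgCl2/DTT buffer was mixed with serially diluted compound, then 0.2 nM truncated human Zcchc11 and 2 nM labeled pre-let-7 were added for 30 min at room temperature. UTP (5 uM) and quench probe (4 nM) then started the reaction. Linear early rates gave IC50 values.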
`CN(C)C1CN(c2ccc(-n3cc(C(=O)O)c(=O)c4cc(Cl)c(N5CCC[C@]5(C)COc5ncccc5Cl)cc43)cn2)C1` [Compound 277, (R)-6-chloro-7-(2-(((3-chloropyridin-2-yl)oxy)methyl)-2-methyl-pyrrolidin-1-yl)-1-(6-(3-(dimethyl-amino)azetidin-1-yl)pyridin-3-yl)-4-oxo-1,4-dihydro-quinoline-3-carboxylic acid formic acid]: the IC50 is no more than 1000 nM.

As for `COCCN(C)C1CN(c2ccc(-n3cc(C(=O)O)c(=O)c4cc(F)c(N5CCC[C@@H]5COc5ncccc5Cl)cc43)cn2)C1` [Compound 278, (R)-7-(2-(((3-chloropyridin-2-yl)oxy)methyl)pyrrolidin-1-yl)-6-fluoro-1-(6-(3-((2-methoxyethyl) (methyl)amino)azetidin-1-yl)pyridin-3-yl)-4-oxo-1,4-dihydro-quinoline-3-carboxylic acid], the IC50 is no more than 1000 nM.

Consider `COc1ccc(Cl)c(OCC23CC(CN2c2nc4c(cc2Cl)c(=O)c(C(=O)O)cn4-c2ccc(N4CC(N(C)C)C4)nc2)C3)n1` [Compound 279, 6-chloro-7-(1-(((3-chloro-6-methoxy-pyridin-2-yl)oxy)methyl)-2-azabicyclo [2.1.1]hexan-2-yl)-1-(6-(3-(dimethyl-amino)azetidin-1-yl)pyridin-3-yl)-4-oxo-1,4-dihydro-1,8-naphthyridine-3-carboxylic acid formic acid], for which the IC50 is no more than 1000 nM.

On to `CN(C)C1CN(c2cnc(-n3cc(C(=O)O)c(=O)c4cc(C#N)c(N5CCC[C@@H]5COc5ncccc5Cl)nc43)cn2)C1` [Compound 280, (R)-7-(2-(((3-chloropyridin-2-yl)oxy)methyl)pyrrolidin-1-yl)-6-cyano-1-(5-(3-(dimethyl-amino)azetidin-1-yl)pyrazin-2-yl)-4-oxo-1,4-dihydro-1,8-naphthyridine-3-carboxylic acid], for which the IC50 was no more than 1000 nM.

`Cn1cc(-n2cc(C(=O)O)c(=O)c3cc(C#N)c(N4CCC[C@H]4COc4ncccc4Cl)nc32)cn1` [Compound 281, (S)-7-(2-(((3-chloropyridin-2-yl)oxy)methyl)pyrrolidin-1-yl)-6-cyano-1-(1-methyl-1H-pyrazol-4-yl)-4-oxo-1,4-dihydro-1,8-naphthyridine-3-carboxylic acid]: the IC50 was no more than 1000 nM.

For the molecule `CN(C)C1CN(c2ccc(-n3cc(C(=O)O)c(=O)c4cc(Cl)c(N5C6CCC5(COc5ncccc5Cl)CC6)cc43)cn2)C1` [Compound 282, 6-chloro-7-(1-(((3-chloropyridin-2-yl)oxy)methyl)-7-azabicyclo [2.2.1]heptan-7-yl)-1-(6-(3-(dimethyl-amino)azetidin-1-yl)pyridin-3-yl)-4-oxo-1,4-dihydro-quinoline-3-carboxylic acid], the IC50 is no more than 1000 nM.

For the molecule `N#Cc1cc2c(=O)c(C(=O)O)cn(-c3cnccn3)c2nc1N1CCC[C@@H]1COc1ccccc1` [Compound 283, (R)-6-cyano-4-oxo-7-(2-(phenoxy-methyl)pyrrolidin-1-yl)-1-(pyrazin-2-yl)-1,4-dihydro-1,8-naphthyridine-3-carboxylic acid], the IC50 is 10000 to 50000 nM.

For the molecule `CN(C)C1CN(c2ccc(-n3cc(C(=O)O)c(=O)c4cc(C#N)c(N5CCC[C@]5(C)COc5ncccc5F)cc43)cn2)C1` [Compound 284, (R)-6-cyano-1-(6-(3-(dimethyl-amino)azetidin-1-yl)pyridin-3-yl)-7-(2-(((3-fluoropyridin-2-yl)oxy)methyl)-2-methyl-pyrrolidin-1-yl)-4-oxo-1,4-dihydro-quinoline-3-carboxylic acid], the IC50 was no more than 1000 nM.

As to `CN(C)C1CN(c2ccc(-n3cc(C(=O)O)c(=O)c4cc(C#N)c(N5CCC[C@@]5(C)COc5ncccc5F)cc43)cn2)C1` [Compound 285, (S)-6-cyano-1-(6-(3-(dimethyl-amino)azetidin-1-yl)pyridin-3-yl)-7-(2-(((3-fluoropyridin-2-yl)oxy)methyl)-2-methyl-pyrrolidin-1-yl)-4-oxo-1,4-dihydro-quinoline-3-carboxylic acid], the IC50 is no more than 1000 nM.

On to `O=C(O)c1cn(-c2cnccn2)c2cc(N3C(=O)CC[C@@H]3COc3ccccn3)c(Cl)cc2c1=O` [Compound 286, (R)-6-chloro-4-oxo-7-(2-oxo-5-((pyridin-2-yloxy)methyl)pyrrolidin-1-yl)-1-(pyrazin-2-yl)-1,4-dihydro-quinoline-3-carboxylic acid], for which the IC50 was greater than 50000 nM.

As to `O=C(O)c1cn(-c2ccc(N3CCC3)nc2)c2cc(N3C(=O)CC[C@@H]3COc3ccccn3)c(Cl)cc2c1=O` [Compound 287, (R)-1-(6-(azetidin-1-yl)pyridin-3-yl)-6-chloro-4-oxo-7-(2-oxo-5-((pyridin-2-yloxy)methyl)pyrrolidin-1-yl)-1,4-dihydro-quinoline-3-carboxylic acid], the IC50 was 10000 to 50000 nM.

Consider `CC1(n2cc(C(=O)O)c(=O)c3cc(Cl)c(N4C(=O)CC[C@H]4COc4ccccn4)cc32)CC1` [Compound 288, (S)-6-chloro-1-(1-methylcyclo-propyl)-4-oxo-7-(2-oxo-5-((pyridin-2-yloxy)methyl)pyrrolidin-1-yl)-1,4-dihydro-quinoline-3-carboxylic acid], for which the IC50 was greater than 50000 nM.

As to `O=C(O)c1cn(-c2ccc(N3CCC3)nc2)c2cc(N3CCC[C@@H]3COc3ncccc3F)c(Cl)cc2c1=O` [Compound 289, (R)-1-(6-(azetidin-1-yl)pyridin-3-yl)-6-chloro-7-(2-(((3-fluoropyridin-2-yl)oxy)methyl)pyrrolidin-1-yl)-4-oxo-1,4-dihydro-quinoline-3-carboxylic acid], the IC50 is no more than 1000 nM.

In the case of `Cc1cccnc1OC[C@H]1CCCN1c1cc2c(cc1F)c(=O)c(C(=O)O)cn2-c1cnn(C)c1` [Compound 291, (R)-6-fluoro-1-(1-methyl-1H-pyrazol-4-yl)-7-(2-(((3-methylpyridin-2-yl)oxy)methyl)pyrrolidin-1-yl)-4-oxo-1,4-dihydro-quinoline-3-carboxylic acid], the IC50 is no more than 1000 nM.

Regarding `CN(C)C(=O)NC[C@H]1CCCN1c1cc2c(cc1Cl)c(=O)c(C(=O)O)cn2-c1ccc(N2CC(N(C)C)C2)nc1` [Compound 292, (R)-6-chloro-1-(6-(3-(dimethyl-amino)azetidin-1-yl)pyridin-3-yl)-7-(2-((3,3-dimethyl-ureido)methyl)pyrrolidin-1-yl)-4-oxo-1,4-dihydro-quinoline-3-carboxylic acid], the IC50 is no more than 1000 nM.

Turning to `CN(C)C1CN(c2ccc(-n3cc(C(=O)O)c(=O)c4cc(C#N)c(N5C[C@@H]6C[C@@H]6C5COc5ncccc5F)cc43)cn2)C1` (stereo partly drawn) [Compound 293, 6-cyano-1-(6-(3-(dimethyl-amino)azetidin-1-yl)pyridin-3-yl)-7-((1S,5R)-2-(((3-fluoropyridin-2-yl)oxy)methyl)-3-azabicyclo [3.1.0]hexan-3-yl)-4-oxo-1,4-dihydro-quinoline-3-carboxylic acid], the IC50 was no more than 1000 nM.

Regarding `COc1ccc(Cl)c(OC[C@H]2CCCN2c2cc3c(cc2Cl)c(=O)c(C(=O)O)cn3-c2ccc(N)nc2)n1` [Compound 294, (R)-1-(6-aminopyridin-3-yl)-6-chloro-7-(2-(((3-chloro-6-methoxy-pyridin-2-yl)oxy)methyl)pyrrolidin-1-yl)-4-oxo-1,4-dihydro-quinoline-3-carboxylic acid], the IC50 is no more than 1000 nM.
